According to patent US10131679B2, “Substituted dihydropyrrolopyrazole compound” (UBE INDUSTRIES, LTD., priority 2014, dated 2018):

How the values were obtained:
[1] = test system: human breast cancer cell line (MCF-7); assay: Human breast cancer (MCF-7) cell growth inhibition test; format: cell-based; details: MCF7, 72 h, MCF-7, culture for 3 days, sulforhodamine B absorbance
Experimental: Human Breast Cancer (MCF-7) Cell Growth Inhibition Test
The measurement of a human breast cancer cell growth inhibitory effect was carried out by modifying the method of Simak et al. (Cancer Research, 69, 6208 (2009)).
A human breast cancer cell line (MCF-7) manufactured by DS Pharma Biomedical Co., Ltd., Cat. No. EC86012803, was cultured in MEM (manufactured by GIBCO/Thermo Fisher Scientific, Inc., REF. 11095-080) medium containing 10% FBS (manufactured by GIBCO/Thermo Fisher Scientific, Inc., REF. 10082-147), nonessential amino acids (manufactured by GIBCO/Thermo Fisher Scientific, Inc., REF. 11140-050), and 1% penicillin/streptomycin/amphotericin B (manufactured by GIBCO/Thermo Fisher Scientific, Inc., REF. 15240-096) and inoculated at 3.0×10^3 cells/well to a 96-well plate (manufactured by Corning Inc., REF. 353072). After overnight culture in a carbon dioxide incubator, it was replaced with a fresh MEM medium containing 10% FBS, nonessential amino acids, and 1% penicillin/streptomycin/amphotericin B on the next day, and a test compound dissolved in DMSO (manufactured by Wako Pure Chemical Industries, Ltd., Code No. 043-07216) (final DMSO concentration: 0.1%) was added and left standing in a carbon dioxide incubator. After culture for 3 days, the absorbance of each well was measured by using In Vitro Toxicology Assay Kit Sulforhodamine B based (manufactured by Sigma-Aldrich Co. LLC., Pcode 1001910706).
(§1) The rate of inhibition of cell growth at each concentration was calculated from the test compound concentration and the absorbance of sulforhodamine B, and the concentration of the test compound necessary for inhibiting 50% of cell growth (IC50 value) was calculated by using EXSUS (version 8.0.0 or version 8.0.1, manufactured by CAC Exicare Corp.).

[2] = test system: Human keratinocytes (NHEK-Neo Pooled); assay: Human keratinocyte growth inhibition assay; format: cell-based; details: 48 h, culture for 2 days, Cell Counting Kit-8
Experimental: Human Keratinocyte Growth Inhibition Assay
The measurement of a human keratinocyte growth inhibitory effect was carried out by modifying the method of Schafer et al. (British Journal of Pharmacology, 159, 842 (2011)).
Human keratinocytes (NHEK-Neo Pooled, manufactured by Lonza Group AG, Cat. No. 00192906) were cultured in KGM-Gold Bullet Kit (manufactured by Lonza Group AG, Cat. No. 00192060) and inoculated at 2.0×10^3 cells/well to a 96-well plate. After overnight culture in a carbon dioxide incubator, a test compound dissolved in DMSO (final DMSO concentration: 0.1%) was added and left standing in a carbon dioxide incubator. After culture for 2 days, the absorbance thereof was measured by using Cell Counting Kit-8 (343-07623 manufactured by Dojindo Laboratories)).
as §1, with “Cell Counting Kit-8,” for “sulforhodamine B,”

[3] = test system: IL-6 production in rat adjuvant arthritis model; assay: IL-6 production inhibition test in rat adjuvant arthritis model; format: in vivo, LEW rats; details: single dose, left ankle, read-out: rate of inhibition of IL-6 production; for inhibition in vivo at 3 mg/kg: administration of 3 mg/kg; for inhibition in vivo at 10 mg/kg: administration of 10 mg/kg
Experimental: IL-6 Production Inhibition Test in Rat Adjuvant Arthritis Model
A single-dose drug efficacy test using rat adjuvant arthritis models was carried out by modifying the method of Magari. K et al. (J. Rheumatol. 30 (10), 2193 (2003)).
LEW rats (female, supplied by Charles River Laboratories Japan, Inc.) were used as laboratory animals. An adjuvant prepared from heat-killed bacteria of Mycobacterium butyricum (264010 manufactured by Difco Laboratories Ltd.) and liquid paraffin (manufactured by Wako Pure Chemical Industries, Ltd., Code No. 128-04375) was subcutaneously administered as a phlogogenic material to the right hind leg footpads of the rats under inhalation anesthesia with isoflurane (manufactured by Wako Pure Chemical Industries, Ltd., Code No. 099-06571) to prepare arthritis models. Approximately 2 weeks later, left paw edema was measured with a paw volume meter (model TK-101CMP manufactured by Unicorn Co., Ltd.), and grouping was performed such that the average volume of left paw edema was equal among groups. A test compound or only a solvent was administered, after a certain time, they were sacrificed by exsanguination from the abdomens under isoflurane anesthesia, and the left ankles were collected, chopped, and frozen by using liquid nitrogen. The collected left ankle portions were disrupted in CRYOPress (model CP-100WP manufactured by Microtec Co., Ltd.), then supplemented with a buffer solution, shaken overnight at 4° C., and then centrifuged to collected a supernatant. The preparation of the buffer solution was performed by mixing a Tris buffer solution (pH 7.4), sodium chloride (NaCl), phenyl methyl sulfonyl fluoride (PMSF), Triton X-100, EDTA-free complete tablets (manufactured by F. Hoffmann-La Roche, Ltd., REF. 11 873 580 001), and Otsuka distilled water (manufactured by Otsuka Pharmaceutical Co., Ltd., product No. 1323). IL-6 in the collected supernatant was measured by using a sandwich ELISA kit (manufactured by R&D Systems, Inc., Catalog No. S6050).
The IL-6 content of each sample was calculated from the calibration curve of Standard IL-6 included in the kit. When the amount of IL-6 produced in the solvent administration control group was defined as 100%, the rate of inhibition of IL-6 production (%) at each dose of the test compound was calculated.

Row | Structure (SMILES) | IC50 [1] [nM] | IC50 [2] [nM] | other results
1 | CC1(C)c2[nH]nc(NC(=O)C3([Si](C)(C)C)CCC3)c2CN1C(=O)N[C@H](CO)c1ccccc1 [IV-114, (S)—N-(2-Hydroxy-1-phenylethyl)-6,6-dimethyl-3-[1-(trimethylsilyl)cyclobutanecarboxamido]-4,6-dihydropyrrolo[3,4-c]pyrazole-5(1H)-carboxamide] | ≤ 500 |  | 
2 | CO[C@@H](C(=O)N1Cc2c(NC(=O)C3([Si](C)(C)C)CCC3)n[nH]c2C1(C)C)c1ccccc1 [IV-1175, (R)—N-[5-(2-Methoxy-2-phenylacetyl)-6,6-dimethyl-1,4,5,6-tetrahydropyrrolo[3,4-c]pyrazol-3-yl]-1-(trimethylsilyl)cyclobutanecarboxamide] |  | ≤ 500 | 
3 | CC(C)(CO)C(NC(=O)N1Cc2c(NC(=O)C3([Si](C)(C)C)CCC3)n[nH]c2C1(C)C)c1ccccc1 (racemic) [IV-354, N-(3-Hydroxy-2,2-dimethyl-1-phenylpropyl)-6,6-dimethyl-3-[1-(trimethylsilyl)cyclobutanecarboxamido]-4,6-dihydropyrrolo[3,4-c]pyrazole-5(1H)-carboxamide] |  | ≤ 500 | 
4 | CC1(C)c2[nH]nc(NC(=O)C3([Si](C)(C)C)CCC3)c2CN1C(=O)N[C@H](CCCCO)c1ccccc1 [IV-291, (R)—N-(5-Hydroxy-1-phenylpentyl)-6,6-dimethyl-3-[1-(trimethylsilyl)cyclobutanecarboxamido]-4,6-dihydropyrrolo[3,4-c]pyrazole-5(1H)-carboxamide] | ≤ 500 |  | 
5 | CC[Si](C)(C)C1(C(=O)Nc2n[nH]c3c2CN(C(=O)[C@H](OC)c2ccccc2)C3(C)C)CCC1 [IV-1178, (R)-1-(Ethyldimethylsilyl)-N-[5-(2-methoxy-2-phenylacetyl)-6,6-dimethyl-1,4,5,6-tetrahydropyrrolo[3,4-c]pyrazol-3-yl] cyclobutanecarboxamide] |  | ≤ 500 | 
6 | CC1(C)c2[nH]nc(NC(=O)C3([Si](C)(C)C)CCC3)c2CN1C(=O)NCCO [IV-438, N-(2-Hydroxyethyl)-6,6-dimethyl-3-[1-(trimethylsilyl)cyclobutanecarboxamido]-4,6-dihydropyrrolo[3,4-c]pyrazole-5(1H)-carboxamide] | ≤ 500 |  | 
7 | CC1(C)c2[nH]nc(NC(=O)C3([Si](C)(C)C)CCC3)c2CN1C(=O)C(CO)c1ccccc1 (stereo not drawn) [IV-632, N-[5-(3-Hydroxy-2-phenylpropanoyl)-6,6-dimethyl-1,4,5,6-tetrahydropyrrolo[3,4-c]pyrazol-3-yl]-1-(trimethylsilyl)cyclobutanecarboxamide] |  |  | inhibition in vivo at 3 mg/kg [3]: ≥ 50%
8 | CC1(C)c2[nH]nc(NC(=O)C3([Si](C)(C)C)CCC3)c2CN1C(=O)[C@H](OC(F)F)c1ccccc1 [IV-1180, (R)—N-{5-[2-(Difluoromethoxy)-2-phenylacetyl]-6,6-dimethyl-1,4,5,6-tetrahydropyrrolo[3,4-c]pyrazol-3-yl}-1-(trimethylsilyl)cyclobutanecarboxamide] |  | ≤ 500 | 
9 | CC[Si](C)(C)C1(C(=O)Nc2n[nH]c3c2CN(C(=O)N[C@H](CO)c2ccccc2)C3(C)C)CCC1 [IV-117, (S)-3-[1-(Ethyldimethylsilyl)cyclobutanecarboxamido]-N-(2-hydroxy-1-phenylethyl)-6,6-dimethyl-4,6-dihydropyrrolo[3,4-c]pyrazole-5(1H)-carboxamide] | ≤ 500 |  | 
10 | CN(C(=O)N1Cc2c(NC(=O)C3([Si](C)(C)C)CCC3)n[nH]c2C1(C)C)[C@H](CO)c1ccccc1 [IV-119, (S)—N-(2-Hydroxy-1-phenylethyl)-N,6,6-trimethyl-3-[1-(trimethylsilyl)cyclobutanecarboxamido]-4,6-dihydropyrrolo[3,4-c]pyrazole-5(1H)-carboxamide] |  |  | inhibition in vivo at 10 mg/kg [3]: ≥ 50%
11 | CCO[C@@H](C(=O)N1Cc2c(NC(=O)C3([Si](C)(C)C)CCC3)n[nH]c2C1(C)C)c1ccccc1 [IV-1188, (R)—N-[5-(2-Ethoxy-2-phenylacetyl)-6,6-dimethyl-1,4,5,6-tetrahydropyrrolo[3,4-c]pyrazol-3-yl]-1-(trimethylsilyl)cyclobutanecarboxamide] |  | ≤ 500 | 
12 | CC(C)[C@@H](CO)NC(=O)N1Cc2c(NC(=O)C3([Si](C)(C)C)CCC3)n[nH]c2C1(C)C [IV-475, (S)—N-(1-Hydroxy-3-methylbutan-2-yl)-6,6-dimethyl-3-[1-(trimethylsilyl)cyclobutanecarboxamido]-4,6-dihydropyrrolo[3,4-c]pyrazole-5(1H)-carboxamide] | ≤ 500 |  | 
13 | CC(C)(O)C[C@@H](NC(=O)N1Cc2c(NC(=O)C3([Si](C)(C)C)CCC3)n[nH]c2C1(C)C)c1ccccc1 [IV-299, (R)—N-(3-Hydroxy-3-methyl-1-phenylbutyl)-6,6-dimethyl-3-[1-(trimethylsilyl)cyclobutanecarboxamido]-4,6-dihydropyrrolo[3,4-c]pyrazole-5(1H)-carboxamide] |  | ≤ 500 | inhibition in vivo at 3 mg/kg [3]: ≥ 50%
14 | C[C@@H](CO)NC(=O)N1Cc2c(NC(=O)C3([Si](C)(C)C)CCC3)n[nH]c2C1(C)C [IV-455, (S)—N-(1-Hydroxypropan-2-yl)-6,6-dimethyl-3-[1-(trimethylsilyl)cyclobutanecarboxamido]-4,6-dihydropyrrolo[3,4-c]pyrazole-5(1H)-carboxamide] | ≤ 500 |  | 
15 | CC1(C)c2[nH]nc(NC(=O)C3([Si](C)(C)C)CCC3)c2CN1C(=O)N[C@H](CO)C1CCCCC1 [IV-495, (S)—N-(1-Cyclohexyl-2-hydroxyethyl)-6,6-dimethyl-3-[1-(trimethylsilyl)cyclobutanecarboxamido]-4,6-dihydropyrrolo[3,4-c]pyrazole-5(1H)-carboxamide] | ≤ 500 |  | 
16 | CC1(C)c2[nH]nc(NC(=O)C3([Si](C)(C)C)CCC3)c2CN1C(=O)O[C@H](CO)c1ccccc1 [IV-2, (S)-2-Hydroxy-1-phenylethyl 6,6-dimethyl-3-[1-(trimethylsilyl)cyclobutanecarboxamido]-4,6-dihydropyrrolo[3,4-c]pyrazole-5(1H)-carboxylate] |  |  | inhibition in vivo at 10 mg/kg [3]: ≥ 50%
17 | CC1(C)c2[nH]nc(NC(=O)C(C)(C)[Si](C)(C)C)c2CN1C(=O)N[C@H](CO)c1ccccc1 [II-114, (S)—N-(2-Hydroxy-1-phenylethyl)-6,6-dimethyl-3-[2-methyl-2-(trimethylsilyl)propanamido]-4,6-dihydropyrrolo[3,4-c]pyrazole-5(1H)-carboxamide] |  |  | inhibition in vivo at 10 mg/kg [3]: ≥ 50%
